From patent publication US20090076136A1, “THERAPEUTIC AGENT” (priority 2003, published 2009)

Key:
[1] = test system: glucose transporter (mature adipocytes); experiment: Influence of cytochalasin B on 2-deoxyglucose uptake in mature adipocytes; format: cell-based; conditions: cytochalasin B 40 μM, in every group (polygodial 3 μM, insulin 1 μg/mL, negative control)
Experimental: Specifically, as a sample, there was set a group with addition of a dimethyl sulfoxide solution of polygodial so as to have a final concentration of 3 μM. […] Furthermore, in each group, there was set a group with addition of cytochalasin B (manufactured by Nacalai Tesque, Inc., 10435-81) so as to have a final concentration 40 μM at the same time as the time of addition of the sample and insulin. Thereafter, the amount of 2-deoxy-[1,2-^3H(N)]-glucose taken into the adipocytes was determined in the same manner.

mouse = experiment: Single-dose oral toxicity in mouse; format: in vivo; conditions: 1 g/kg weight
Experimental: No toxicity is found even when the above-mentioned effective ingredient used in the present invention is administered in an effective dose for the exhibition of its action.

3T3-L1 cells = experiment: Inducing action on differentiation into adipocytes: amount of triglyceride in the adipocytes; format: cell-based
Experimental: Induction of differentiation into adipocytes was carried out by partially modifying the above-mentioned method of Rubin C. S. et al. In addition, as a compound (P001), a compound prepared in Example 4 was used. 3T3-L1 cells were suspended in a 10% (w/v) calf serum-containing Dulbecco's modified Eagle's medium containing 200 μM ascorbic acid so as to have a density of 4×10^3 cells/mL, and the suspension was put in each well of a 12-well microtiter plate in an amount of 2 mL per well. The cells were cultured at 37° C. for 7 days in the presence of 5% carbon dioxide gas. On the seventh day, the medium was exchanged with a 10% fetal bovine serum-containing Dulbecco's modified Eagle's medium containing 200 μM ascorbic acid and 0.25 μM dexamethasone, and 4 μL of a 15 mM dimethyl sulfoxide solution of the compound (P001), a 5 mM dimethyl sulfoxide solution of the compound (P001), or a 1.5 mM dimethyl sulfoxide solution of the compound (P001) was added to each well. Here, there were set a group with addition of 4 μL of a 5 mg/mL aqueous solution of insulin as a positive control, and a group with addition of dimethyl sulfoxide as a negative control. After 48 hours, the medium was exchanged with a 10% fetal bovine serum-containing Dulbecco's modified Eagle's medium containing 200 μM ascorbic acid, and 4 μL of a 15 mM dimethyl sulfoxide solution of the compound (P001), a 5 mM dimethyl sulfoxide solution of the compound (P001), or a 1.5 mM dimethyl sulfoxide solution of the compound (P001), a group with addition of 2 μL of a 5 mg/mL aqueous solution of insulin as a positive control, or a group with addition of dimethyl sulfoxide as a negative control was put to each well. The cells were cultured for additional 7 days. Here, the medium was exchanged after 2 days and after 5 days, and at that time, 4 μL of a 15 mM dimethyl sulfoxide solution of the compound (P001), a 5 mM dimethyl sulfoxide solution of the compound (P001), or a 1.5 mM dimethyl sulfoxide solution of the compound (P001), a group with addition of 2 μL of a 5 mg/mL aqueous solution of insulin as a positive control, or a group with addition of dimethyl sulfoxide as a negative control was put to each well. […]
The amount of triglyceride in the adipocytes was determined as an index for inducing differentiation into mature adipocytes, and also as the evaluation of insulin-mimetic action.
After the termination of the culture, the medium was removed, and the cells were washed twice with a phosphate buffered saline. One milliliter of a solvent of hexane:isopropanol=3:2 was added to the cells. The mixture was allowed to stand at room temperature for 30 minutes, and thereafter the supernatant was collected. The procedures were repeated again, and 2 mL of the supernatant was concentrated to dryness. The precipitates were dissolved in 100 μL of isopropanol, and the amount of triglyceride contained in 10 μL of the solution was determined using a triglyceride E-test (manufactured by Wako Pure Chemical Industries, Ltd., code 432-40201). In addition, all the determinations were carried out twice.

[2] = test system: mature adipocytes (3T3-L1 cells); experiment: Enhancing action on glucose uptake: 2-deoxyglucose uptake into mature adipocytes; format: cell-based
Experimental: The induction of differentiation into mature adipocytes was carried out by partially modifying the method of Rubin C. S. et al. (JBC. 253 7570-7578, 1978). 3T3-L1 cells (ATCC CCL-92.1) were suspended in a 10% calf serum (manufactured by ICN)-containing Dulbecco's modified Eagle's medium (manufactured by Sigma, D6046) containing 200 μM ascorbic acid so as to have a density of 4×10^3 cells/mL, and the suspension was put in each well of a 12-well microtiter plate in an amount of 2 mL per well. The cells were cultured at 37° C. for 7 days in the presence of 5% carbon dioxide gas. On the seventh day, the medium was exchanged with […] of a 10% fetal bovine serum (manufactured by GIBCO)-containing Dulbecco's modified Eagle's medium containing 200 μM ascorbic acid, 0.25 μM dexamethasone, 10 μg/mL insulin (manufactured by TAKARA BIO INC.) and 0.5 mM 3-isobutyl-1-methylxanthine (manufactured by Nacalai Tesque, Inc., 19624-86). After 45 hours, the medium was exchanged with 2 mL of a 10% fetal bovine serum-containing Dulbecco's modified Eagle's medium containing 200 μM ascorbic acid and 5 μg/mL insulin. The medium was exchanged on after 2 days and 5 days, and the cells were cultured for 7 days, to give mature adipocytes.
As the evaluation of enhancing action on glucose uptake, and also as the evaluation of insulin-mimetic action, the amount of 2-deoxyglucose uptake into mature adipocytes stimulated with the sample in the adipocytes was determined.
After the termination of the culture, the medium was removed, and the cells were washed twice with a 0.1% (w/v) bovine serum albumin (manufactured by Sigma, A8022)-containing Dulbecco's modified Eagle's medium. Thereafter, 1 mL of the same medium was put to each well. The cells were cultured overnight at 37° C. in the presence of 5% carbon dioxide gas. After the overnight culture, the cells were washed twice with a HEPES buffered saline (140 mM NaCl, 5 mM KCl, 2.5 mM MgSO4, 1 mM CaCl2, 20 mM HEPES-Na (pH 7.4)), and 0.9 mL of the same buffer was added thereto. The cells were cultured at 37° C. for 75 minutes. […] […] Thereafter, 100 μL of a HEPES buffered saline containing 2-deoxy-[1,2-^3H(N)]-glucose (manufactured by PerkinElmer Life Sciences Inc., NET549A) and 1 mM 2-deoxyglucose (manufactured by Nacalai Tesque, Inc., 10722-11) was added thereto at a final concentration of 0.5 μCi/mL, and the cells were further cultured at 37° C. for 10 minutes. After the termination of the culture, the supernatant was removed, the cells were washed three times with a phosphate buffer cooled to 4° C., and 0.5 mL of a 1% Nonidet P-40-containing phosphate buffer was added to lyse the cells, whereby 2-deoxy-[1,2-^3H(N)]-glucose taken into the cells was eluted. The radioactivity was determined with a liquid scintillation counter LS6500 (manufactured by Beckmann) using 25 μL of the supernatant with Ultima Gold (manufactured by PerkinElmer Life Sciences Inc., 6013329) as a scintillation cocktail.

[3] = final concentration 10 μM, 3 μM or 1 μM, FIG. 2, FIG. 3
[4] = final concentration 30 μM, 10 μM or 3 μM

For `C=C1[C@@H](C)[C@H]2[C@H](Cc3ccccc3)NC(=O)[C@]23OC(=O)/C=C/[C@H](O)CCC[C@@H](C)C/C=C/[C@H]3[C@@H]1O` [cytochalasin B, reference compound], which “2-deoxy-[1,2-3H(N)]-glucose uptake on addition of cytochalasin B” value [1] is on record?
The value was “almost completely inhibited”.

For `CC(=O)OCC1=CCC2C(C)(C)CCCC2(C)C1C=O` (stereo not shown) [P008, 2-[(acetyloxy)methyl]-1,4,4a,5,6,7,8,8a-octahydro-5,5,8a-trimethyl-1-naphthalenecarboxyaldehyde], which “deaths after oral administration” value (mouse) is on record?
Its value is “no cases of deaths are found”.

And the “biosynthesis of triglyceride (index of differentiation into mature adipocytes)” value (3T3-L1 cells; final concentration 10 μM or 3 μM, FIG. 20)?
The value was “induction of biosynthesis of triglyceride was found”.

What does the source list for `CC1(C)CCC[C@]2(C)[C@H](C=O)C(C=O)=CC[C@@H]12` [epipolygodial]?
deaths after oral administration (mouse): no cases of deaths are found; 2-deoxy-[1,2-3H(N)]-glucose uptake compared to the negative control ([2]; final concentration 3 μM, 1 μM or 0.3 μM, FIG. 25): enhancement of 2-deoxy-[1,2-^3H(N)]-glucose uptake was found

Which “deaths after oral administration” value (mouse) does the source give for `CC1(C)CCCC2(C)C1CCC1(CO1)C2C/C=C(/C=O)CC=O` (stereo not shown) [miogadial] here?
Its value is “no cases of deaths are found”.

For `COC(=O)C1=CCC2C(C)(C)CCCC2(C)C1C(=O)OC` (stereo not shown) [P004, dimethyl 1,4,4a,5,6,7,8,8a-octahydro-5,5,8a-trimethyl-1,2-naphthalenedicarboxylate], which “deaths after oral administration” value (mouse) is on record?
Its value is “no cases of deaths are found”.

What about the “biosynthesis of triglyceride (index of differentiation into mature adipocytes)” value (3T3-L1 cells; final concentration 10 μM, 3 μM or 1 μM, FIG. 12) of the same molecule?
The value was “induction of biosynthesis of triglyceride was found”.

And the “2-deoxy-[1,2-3H(N)]-glucose uptake compared to the negative control” value ([2]; final concentration 30 μM, 10 μM or 3 μM, FIG. 11)?
Its value is “enhancement of 2-deoxy-[1,2-H(N)]-glucose uptake was found”.

Which “deaths after oral administration” value (mouse) does the source give for `CC(=O)O[C@@H]1C[C@@H]2[C@@]3(C)CCCC(C)(C)[C@@H]3CC[C@@]2(C)[C@@H]2CC=C(C=O)[C@H](C=O)[C@@]12C` [12-epi-scalaradial] here?
Its value is “no cases of deaths are found”.

What about the “2-deoxy-[1,2-3H(N)]-glucose uptake compared to the negative control” value [2, 3] of the same molecule?
The value was “enhancement of 2-deoxy-[1,2-^3H(N)]-glucose uptake was found”.

How did the “deaths after oral administration” value (mouse) turn out when `CC1(C)CCCC2(C)C1=CCC(CO)=C2CO` (stereo not shown) [P002, 3,5,6,7,8,8a-hexahydro-5,5,8a-trimethyl-1,2-naphthalenedimethanol] was run?
Its value is “no cases of deaths are found”.

What about the “biosynthesis of triglyceride (index of differentiation into mature adipocytes)” value (3T3-L1 cells; final concentration 30 μM or 3 μM, FIG. 7) of the same molecule?
The value was “induction of biosynthesis of triglyceride was found”.

What does the source list for `CC1(C)CCCC2(C)C(CO)C(CO)=CCC12` (stereo not shown) [P005, 1,4,4a,5,6,7,8,8a-octahydro-5,5,8a-trimethyl-1,2-naphthalenedimethanol]?
deaths after oral administration (mouse): no cases of deaths are found; biosynthesis of triglyceride (index of differentiation into mature adipocytes) (3T3-L1 cells; final concentration 30 μM or 10 μM, FIG. 14): induction of biosynthesis of triglyceride was found

For `CC1(C)C[C@H]2C=C(C=O)[C@]3(C=O)C[C@]3(C)[C@H]2C1` [isovelleral], which “deaths after oral administration” value (mouse) is on record?
The value was “no cases of deaths are found”.

And the “2-deoxy-[1,2-3H(N)]-glucose uptake compared to the negative control” value ([2]; final concentration 3 μM or 1 μM, FIG. 24)?
The value was “enhancement of 2-deoxy-[1,2-^3H(N)]-glucose uptake was found”.

What does the source list for `O=Cc1cc2ccccc2cc1C=O` [naphthalene-2,3-dicarboxyaldehyde]?
deaths after oral administration (mouse): no cases of deaths are found; 2-deoxy-[1,2-3H(N)]-glucose uptake compared to the negative control [2, 3]: enhancement of 2-deoxy-[1,2-^3H(N)]-glucose uptake was found

For `COC(=O)C1=C(C(=O)OC)C2(C)CCCC(C)(C)C2=CC1` (stereo not shown) [P001, dimethyl 3,5,6,7,8,8a-hexahydro-5,5,8a-trimethyl-1,2-naphthalenedicarboxylate], which “deaths after oral administration” value (mouse) is on record?
The value was “no cases of deaths are found”.

What about the “biosynthesis of triglyceride (index of differentiation into mature adipocytes)” value (3T3-L1 cells; [4]) of the same molecule?
The value was “induction of biosynthesis of triglyceride was found”.

For `CC1(C)CCCC2(C)C1=CCC1=C2C(=O)OC1` (stereo not shown) [P003, 4,6,7,8,9,9a-hexahydro-6,6,9a-trimethyl-naphtho[1,2-c]furan-1(3H)-one], which “deaths after oral administration” value (mouse) is on record?
The value was “no cases of deaths are found”.

What about the “biosynthesis of triglyceride (index of differentiation into mature adipocytes)” value (3T3-L1 cells; [4]) of the same molecule?
Its value is “induction of biosynthesis of triglyceride was found”.

What about the “2-deoxy-[1,2-3H(N)]-glucose uptake compared to the negative control” value ([2]; final concentration 30 μM or 10 μM, sample added at each exchange of BSA medium or HEPES buffered saline, FIG. 23) of the same molecule?
The value was “enhancement of 2-deoxy-[1,2-^3H(N)]-glucose uptake was found”.

Which results are given for `CC(=O)OCC1=CCC2C(C)(C)CCCC2(C)C1C=O` (stereo not shown) [P007, 1-[(acetyloxy)methyl]-1,4,4a,5,6,7,8,8a-octahydro-5,5,8a-trimethyl-2-naphthalenecarboxyaldehyde]?
deaths after oral administration (mouse): no cases of deaths are found; biosynthesis of triglyceride (index of differentiation into mature adipocytes) (3T3-L1 cells; [4]): induction of biosynthesis of triglyceride was found

How did the “deaths after oral administration” value (mouse) turn out when `CC1(C)CCCC2(C)C3COC(=O)C3=CCC12` (stereo not shown) [P006, 5,5a,6,7,8,9,9a,9b-octahydro-6,6,9a-trimethyl-naphtho[1,2-c]furan-3(1H)-one] was run?
Its value is “no cases of deaths are found”.

And the “biosynthesis of triglyceride (index of differentiation into mature adipocytes)” value (3T3-L1 cells; [4])?
Its value is “induction of biosynthesis of triglyceride was found”.
